From PubChem BioAssay (NCI)
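Five concentrations, 48 hours, 96-well plates. GI50 marks 50% less growth. TGI marks complete inhibition of growth.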

Experiments:
Test in all cases: inhibition of tumour cell growth, NCI panel, 48 h
786-0 renal = tested on: 786-0 renal
A498 renal = tested on: A498 renal
A549 NSCLC = tested on: A549 NSCLC
ACHN renal = tested on: ACHN renal
BT-549 breast = tested on: BT-549 breast
CAKI-1 renal = tested on: CAKI-1 renal
CCRF-CEM leukemia = tested on: CCRF-CEM leukemia
COLO 205 colon = tested on: COLO 205 colon
DU-145 prostate = tested on: DU-145 prostate
EKVX NSCLC = tested on: EKVX NSCLC
HCC-2998 colon = tested on: HCC-2998 colon
HCT-116 colon = tested on: HCT-116 colon
HCT-15 colon = tested on: HCT-15 colon
HOP-62 NSCLC = tested on: HOP-62 NSCLC
HOP-92 NSCLC = tested on: HOP-92 NSCLC
HS 578T breast = tested on: HS 578T breast
HT29 colon = tested on: HT29 colon
IGROV1 ovarian = tested on: IGROV1 ovarian
K-562 leukemia = tested on: K-562 leukemia
KM12 colon = tested on: KM12 colon
LOX IMVI melanoma = tested on: LOX IMVI melanoma
M14 melanoma = tested on: M14 melanoma
MALME-3M melanoma = tested on: MALME-3M melanoma
MCF7 breast = tested on: MCF7 breast
MDA-MB-231 breast = tested on: MDA-MB-231 breast
MDA-MB-435 = tested on: MDA-MB-435
MOLT-4 leukemia = tested on: MOLT-4 leukemia
NCI-H226 lung = tested on: NCI-H226 lung
NCI-H460 lung = tested on: NCI-H460 lung
NCI-H522 lung = tested on: NCI-H522 lung
NCI/ADR-RES ovarian = tested on: NCI/ADR-RES ovarian
OVCAR-3 ovarian = tested on: OVCAR-3 ovarian
OVCAR-4 ovarian = tested on: OVCAR-4 ovarian
OVCAR-5 ovarian = tested on: OVCAR-5 ovarian
OVCAR-8 ovarian = tested on: OVCAR-8 ovarian
PC-3 prostate = tested on: PC-3 prostate
RPMI-8226 leukemia = tested on: RPMI-8226 leukemia
RXF 393 renal = tested on: RXF 393 renal
SF-268 CNS = tested on: SF-268 CNS
SF-295 CNS = tested on: SF-295 CNS
SF-539 CNS = tested on: SF-539 CNS
SK-MEL-2 melanoma = tested on: SK-MEL-2 melanoma
SK-MEL-28 melanoma = tested on: SK-MEL-28 melanoma
SK-MEL-5 melanoma = tested on: SK-MEL-5 melanoma
SK-OV-3 ovarian = tested on: SK-OV-3 ovarian
SN12C renal = tested on: SN12C renal
SNB-19 CNS = tested on: SNB-19 CNS
SR leukemia = tested on: SR leukemia
SW-620 colon = tested on: SW-620 colon
T-47D breast = tested on: T-47D breast
TK-10 renal = tested on: TK-10 renal
U251 CNS = tested on: U251 CNS
UACC-257 melanoma = tested on: UACC-257 melanoma
UACC-62 melanoma = tested on: UACC-62 melanoma
UO-31 renal = tested on: UO-31 renal
NCI-H23 lung = tested on: NCI-H23 lung
SNB-75 CNS = tested on: SNB-75 CNS

## Cc1c(-c2ccc(O)cc2)oc(=O)c2ccc(O)cc12
786-0 renal
  GI50: 50.7 µM
  TGI: > 100 µM
A498 renal
  GI50: 42.8 µM
  TGI: 98.1 µM
A549 NSCLC
  GI50: 47.6 µM
  TGI: > 100 µM
ACHN renal
  GI50: > 100 µM
  TGI: > 100 µM
BT-549 breast
  GI50: 35.6 µM
  TGI: > 100 µM
CAKI-1 renal
  GI50: 22.4 µM
  TGI: > 100 µM
CCRF-CEM leukemia
  GI50: 32.6 µM
  TGI: > 100 µM
COLO 205 colon
  GI50: > 100 µM
  TGI: > 100 µM
DU-145 prostate
  GI50: 75.8 µM
  TGI: > 100 µM
EKVX NSCLC
  GI50: 54.6 µM
  TGI: > 100 µM
HCC-2998 colon
  GI50: 36.9 µM
  TGI: > 100 µM
HCT-116 colon
  GI50: 38 µM
  TGI: > 100 µM
HCT-15 colon
  GI50: 89.8 µM
  TGI: > 100 µM
HOP-62 NSCLC
  GI50: 41 µM
  TGI: > 100 µM
HOP-92 NSCLC
  GI50: > 100 µM
  TGI: > 100 µM
HS 578T breast
  GI50: 43.5 µM
  TGI: > 100 µM
HT29 colon
  GI50: 73.3 µM
  TGI: > 100 µM
IGROV1 ovarian
  GI50: 35.7 µM
  TGI: > 100 µM
K-562 leukemia
  GI50: 38.5 µM
  TGI: > 100 µM
KM12 colon
  GI50: 60.9 µM
  TGI: > 100 µM
LOX IMVI melanoma
  GI50: > 100 µM
  TGI: > 100 µM
M14 melanoma
  GI50: 40.3 µM
  TGI: > 100 µM
MALME-3M melanoma
  GI50: 32.7 µM
  TGI: > 100 µM
MCF7 breast
  GI50: 66.3 µM
  TGI: > 100 µM
MDA-MB-231 breast
  GI50: > 100 µM
  TGI: > 100 µM
MDA-MB-435
  GI50: 15.4 µM
  TGI: 85.2 µM
MOLT-4 leukemia
  GI50: 73.7 µM
  TGI: > 100 µM
NCI-H226 lung
  GI50: > 100 µM
  TGI: > 100 µM
NCI-H460 lung
  GI50: 45.3 µM
  TGI: > 100 µM
NCI-H522 lung
  GI50: 87.6 µM
  TGI: > 100 µM
NCI/ADR-RES ovarian
  GI50: 49.7 µM
  TGI: > 100 µM
OVCAR-3 ovarian
  GI50: 51.5 µM
  TGI: > 100 µM
OVCAR-4 ovarian
  GI50: > 100 µM
  TGI: > 100 µM
OVCAR-5 ovarian
  GI50: > 100 µM
  TGI: > 100 µM
OVCAR-8 ovarian
  GI50: 83.8 µM
  TGI: > 100 µM
PC-3 prostate
  GI50: 56.4 µM
  TGI: > 100 µM
RPMI-8226 leukemia
  GI50: 31 µM
  TGI: > 100 µM
RXF 393 renal
  GI50: > 100 µM
  TGI: > 100 µM
SF-268 CNS
  GI50: 55.4 µM
  TGI: > 100 µM
SF-295 CNS
  GI50: 32.8 µM
  TGI: > 100 µM
SF-539 CNS
  GI50: 36.7 µM
  TGI: > 100 µM
SK-MEL-2 melanoma
  GI50: > 100 µM
  TGI: > 100 µM
SK-MEL-28 melanoma
  GI50: 60 µM
  TGI: > 100 µM
SK-MEL-5 melanoma
  GI50: 33.3 µM
  TGI: > 100 µM
SK-OV-3 ovarian
  GI50: > 100 µM
  TGI: > 100 µM
SN12C renal
  GI50: 66.6 µM
  TGI: > 100 µM
SNB-19 CNS
  GI50: > 100 µM
  TGI: > 100 µM
SR leukemia
  GI50: 41.6 µM
  TGI: > 100 µM
SW-620 colon
  GI50: 55.4 µM
  TGI: > 100 µM
T-47D breast
  GI50: > 100 µM
  TGI: > 100 µM
TK-10 renal
  GI50: 27.4 µM
  TGI: > 100 µM
U251 CNS
  GI50: 63.8 µM
  TGI: > 100 µM
UACC-257 melanoma
  GI50: 63.2 µM
  TGI: > 100 µM
UACC-62 melanoma
  GI50: 35.2 µM
  TGI: > 100 µM
UO-31 renal
  GI50: 69.9 µM
  TGI: > 100 µM

## O=C1c2cccnc2C(=O)c2c1c(C(=O)NCCn1ccnc1)c1ccccn21
786-0 renal
  GI50: 5.47 µM
  TGI: 37.6 µM
A498 renal
  GI50: 5.43 µM
  TGI: 17.6 µM
A549 NSCLC
  GI50: 1.6 µM
  TGI: 6.82 µM
ACHN renal
  GI50: 2.75 µM
  TGI: 36 µM
BT-549 breast
  GI50: 5.14 µM
  TGI: 16.9 µM
CAKI-1 renal
  GI50: 15.1 µM
  TGI: 34.5 µM
CCRF-CEM leukemia
  GI50: 6.12 µM
  TGI: > 100 µM
COLO 205 colon
  GI50: 1.48 µM
  TGI: 3.17 µM
DU-145 prostate
  GI50: 3.09 µM
  TGI: 12.4 µM
EKVX NSCLC
  GI50: 4.54 µM
  TGI: 18.6 µM
HCC-2998 colon
  GI50: 2.23 µM
  TGI: 9.82 µM
HCT-116 colon
  GI50: 3.18 µM
  TGI: 9.58 µM
HCT-15 colon
  GI50: 3.31 µM
  TGI: 15.1 µM
HOP-62 NSCLC
  GI50: 1.28 µM
  TGI: 11.3 µM
HOP-92 NSCLC
  GI50: 9.28 µM
  TGI: 31.7 µM
HS 578T breast
  GI50: 5.26 µM
  TGI: 38.7 µM
HT29 colon
  GI50: 2.53 µM
  TGI: 9.2 µM
IGROV1 ovarian
  GI50: 3.27 µM
  TGI: 14.2 µM
K-562 leukemia
  GI50: 4.39 µM
  TGI: > 100 µM
KM12 colon
  GI50: 2.96 µM
  TGI: 19 µM
LOX IMVI melanoma
  GI50: 1.59 µM
  TGI: 5.54 µM
M14 melanoma
  GI50: 1.91 µM
  TGI: 6.13 µM
MALME-3M melanoma
  GI50: 0.722 µM
  TGI: 2.14 µM
MCF7 breast
  GI50: 1.19 µM
  TGI: 3.37 µM
MDA-MB-231 breast
  GI50: 3.46 µM
  TGI: > 100 µM
MDA-MB-435
  GI50: 1.71 µM
  TGI: 3.13 µM
MOLT-4 leukemia
  GI50: 3.89 µM
  TGI: 47.9 µM
NCI-H23 lung
  GI50: 1.18 µM
  TGI: 4.21 µM
NCI-H460 lung
  GI50: 0.551 µM
  TGI: 2.29 µM
NCI-H522 lung
  GI50: 1.82 µM
  TGI: 4.67 µM
NCI/ADR-RES ovarian
  GI50: 27.4 µM
  TGI: > 100 µM
OVCAR-3 ovarian
  GI50: 2.28 µM
  TGI: 7.43 µM
OVCAR-4 ovarian
  GI50: 1.62 µM
  TGI: 3.95 µM
OVCAR-5 ovarian
  GI50: 4.1 µM
  TGI: 24.2 µM
OVCAR-8 ovarian
  GI50: 2.48 µM
  TGI: 8.06 µM
PC-3 prostate
  GI50: 3.33 µM
  TGI: 15.2 µM
RPMI-8226 leukemia
  GI50: 5.95 µM
  TGI: 88.4 µM
RXF 393 renal
  GI50: 3.88 µM
  TGI: 15.7 µM
SF-268 CNS
  GI50: 2.86 µM
  TGI: 16.8 µM
SF-295 CNS
  GI50: 2.66 µM
  TGI: 14 µM
SF-539 CNS
  GI50: 2.45 µM
  TGI: 6.47 µM
SK-MEL-2 melanoma
  GI50: 2.82 µM
  TGI: 8.3 µM
SK-MEL-28 melanoma
  GI50: 4.66 µM
  TGI: 20.7 µM
SK-MEL-5 melanoma
  GI50: 1.06 µM
  TGI: 2.26 µM
SK-OV-3 ovarian
  GI50: 8.88 µM
  TGI: 21.3 µM
SN12C renal
  GI50: 2.28 µM
  TGI: 7.28 µM
SNB-19 CNS
  GI50: 2.22 µM
  TGI: 11.9 µM
SNB-75 CNS
  GI50: 3.24 µM
  TGI: 16.8 µM
SR leukemia
  GI50: 2.2 µM
  TGI: > 100 µM
SW-620 colon
  GI50: 2.55 µM
  TGI: 11.1 µM
T-47D breast
  GI50: 3.24 µM
  TGI: 11.6 µM
U251 CNS
  GI50: 2.96 µM
  TGI: 9.18 µM
UACC-257 melanoma
  GI50: 2.06 µM
  TGI: 3.93 µM
UACC-62 melanoma
  GI50: 1.84 µM
  TGI: 4.4 µM
UO-31 renal
  GI50: 4.07 µM
  TGI: 41.6 µM
